The assay in a line: Agonist activity at RORgammat in mouse CD4+ T cells assessed as induction of Th17 cells differentiation by measuring increase in IL17 production measured after 4 days by intracellular staining based flow cytometry.

pEC50: −log10 of the molar value.

By pEC50 is commonly meant the EC50 on a negative log10 scale, so that one unit is a factor of ten. As to `CCCN(Cc1ccc(NC(=O)Cc2ccc(S(C)(=O)=O)cc2)cc1Cl)CC1CCCCC1`, the pEC50 is 7.43.

The record behind these values is BindingDB's records for doi:10.1016/j.ejmech.2021.113704 (Fudan University, 2021).
